The record followed here is patent publication US20240150293A1, “SPIROCYCLOHEXANE DERIVATIVES, PHARMACEUTICAL COMPOSITIONS CONTAINING THEM AND THEIR USES AS ANTI-APOPTOTIC INHIBITORS” (LES LABORATOIRES SERVIER, priority 2021, published 2024).

Mcl-1 protein, sequence (Q07820 whole entry): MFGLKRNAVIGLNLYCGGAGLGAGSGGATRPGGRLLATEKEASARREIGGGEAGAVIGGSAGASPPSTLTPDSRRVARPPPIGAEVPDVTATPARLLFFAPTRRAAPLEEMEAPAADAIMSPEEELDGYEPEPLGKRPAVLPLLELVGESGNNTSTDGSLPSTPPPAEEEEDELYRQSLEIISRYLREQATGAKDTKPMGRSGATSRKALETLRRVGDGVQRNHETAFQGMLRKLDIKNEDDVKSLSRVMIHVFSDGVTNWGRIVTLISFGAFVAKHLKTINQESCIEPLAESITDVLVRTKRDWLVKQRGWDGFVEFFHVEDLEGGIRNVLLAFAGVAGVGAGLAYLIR

For this test, the target named is Mcl-1 protein (UniProtKB Q07820) (Homo sapiens (Human), UniProt Q07820). Description: Inhibition of Mcl-1 by the fluorescence polarisation assay (Example A, Method A). The settings on record: fluorescence polarization assay. Type of test: binding. The method, boiled down:
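Protein (5 nM) and fluorescein-tagged peptide tracer (1 nM) incubated with 11-point compound series for 2 h at room temperature in HEPES/NaCl/Tween 20 buffer, pH 7.4, 5% DMSO. Displacement read as decrease in polarisation; IC50 fitted by 4-parameter logistic, converted to Ki (cKi or eKi).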
(In fluorescence polarisation assays a small probe gives low polarisation when free and higher when bound to something large.)
Usually Ki stands for a measure of affinity in units of concentration, obtained from inhibition or displacement. As to `CCc1ccc2c(c1)[C@]1(CC[C@](Nc3cccc(Br)c3)(C(=O)O)CC1)C(=O)N2C` [Example 8, (1r,4r)-4-(3-bromoanilino)-5′-ethyl-1′-methyl-2′-oxo-1′,2′-dihydrospiro[cyclohexane-1,3′-indole]-4-carboxylic acid], the Ki stood at 22.5 µM.
Under `CN1c2ccc(/C=C/c3ccccc3)cc2[C@]2(CC[C@](Nc3cccc(Br)c3)(C(=O)O)CC2)C1=O` [Example 9, (1r,4r)-4-(3-bromoanilino)-1′-methyl-2′-oxo-5′-[(E)-2-phenylethenyl]-1′,2′-dihydrospiro[cyclohexane-1,3′-indole]-4-carboxylic acid] stands 4.82 µM; under `CN1c2ccc(-c3ccccc3)cc2[C@]2(CC[C@](Nc3cccc(Br)c3)(C(=O)O)CC2)C1=O` [Example 10, (1r,4r)-4-(3-bromoanilino)-1′-methyl-2′-oxo-5′-phenyl-1′,2′-dihydrospiro[cyclohexane-1,3′-indole]-4-carboxylic acid], 10.7 µM.
With `CN1c2ccc(CCc3ccccc3)cc2[C@]2(CC[C@](Nc3cccc(Br)c3)(C(=O)O)CC2)C1=O` [Example 11, (1r,4r)-4-(3-bromoanilino)-1′-methyl-2′-oxo-5′-(2-phenylethyl)-1′,2′-dihydrospiro[cyclohexane-1,3′-indole]-4-carboxylic acid], the Ki is 6.43 µM.
To `C/C=C/c1ccc2c(c1)[C@]1(CC[C@](Nc3cccc(Br)c3)(C(=O)O)CC1)C(=O)N2C` [Example 12, (1r,4r)-4-(3-bromoanilino)-1′-methyl-2′-oxo-5′-[(1E)-prop-1-en-1-yl]-1′,2′-dihydrospiro[cyclohexane-1,3′-indole]-4-carboxylic acid] belongs 12.4 µM; to `O=C(O)[C@]1(Nc2cccc(Br)c2)CC[C@@]2(CC1)C(=O)N(Cc1ccccc1)c1ccccc12` [Example 13, (1r,4r)-1′-benzyl-4-(3-bromoanilino)-2′-oxo-1′,2′-dihydrospiro[cyclohexane-1,3′-indole]-4-carboxylic acid], 7.08 µM.
Under `CN1c2ccc(C3CC3)cc2[C@]2(CC[C@](Nc3cccc(Br)c3)(C(=O)O)CC2)C1=O` [Example 15, (1r,4r)-4-(3-bromoanilino)-5′-cyclopropyl-1′-methyl-2′-oxo-1′,2′-dihydrospiro[cyclohexane-1,3′-indole]-4-carboxylic acid] stands 11.5 µM.
Under `CN1c2ccccc2[C@]2(CC[C@@](Nc3cccc(Br)c3)(C(=O)O)CC2)C1=O` [Example 17, (1s,4s)-4-(3-bromoanilino)-1′-methyl-2′-oxo-1′,2′-dihydrospiro[cyclohexane-1,3′-indole]-4-carboxylic acid] stands 23.1 µM; under `C#Cc1ccc2c(c1)[C@]1(CC[C@](Nc3cccc(Br)c3)(C(=O)O)CC1)C(=O)N2C` [Example 18, (1r,4r)-4-(3-bromoanilino)-5′-ethynyl-1′-methyl-2′-oxo-1′,2′-dihydrospiro[cyclohexane-1,3′-indole]-4-carboxylic acid], 31.9 µM; under `CN1c2ccc(/C=C/Cc3ccccc3)cc2[C@]2(CC[C@](Nc3cccc(Br)c3)(C(=O)O)CC2)C1=O` [Example 19, (1r,4r)-4-(3-bromoanilino)-1′-methyl-2′-oxo-5′-[(1E)-3-phenylprop-1-en-1-yl]-1′,2′-dihydrospiro[cyclohexane-1,3′-indole]-4-carboxylic acid], 21.1 µM.
Take `Cc1cc(Br)cc2c1N(C)C(=O)[C@]21CC[C@@](Nc2cccc(Br)c2)(C(=O)O)CC1` [Example 20, (1r,4r)-5′-bromo-4-(3-bromoanilino)-1′,7′-dimethyl-2′-oxo-1′,2′-dihydrospiro[cyclohexane-1,3′-indole]-4-carboxylic acid]: the Ki was 25.7 µM.
To `CC1=Nc2ccccc2[C@]12CC[C@](Nc1cccc(Br)c1)(C(=O)O)CC2` [Example 22, (1r,4r)-4-(3-bromoanilino)-2′-methylspiro[cyclohexane-1,3′-indole]-4-carboxylic acid] belongs 24.1 µM; to `CC1N(C)c2ccccc2[C@]12CC[C@](Nc1cccc(Br)c1)(C(=O)O)CC2` (some centres unmarked) [Example 23, (1r,4r)-4-(3-bromoanilino)-1′,2′-dimethyl-1′,2′-dihydrospiro[cyclohexane-1,3′-indole]-4-carboxylic acid], 1.08 µM.
Take `CC1N(C)c2ccccc2[C@]12CC[C@@](Nc1cccc(Br)c1)(C(=O)O)CC2` (some centres unmarked) [Example 24, (1s,4s)-4-(3-bromoanilino)-1′,2′-dimethyl-1′,2′-dihydrospiro[cyclohexane-1,3′-indole]-4-carboxylic acid]: the Ki is 19.9 µM.
To `CC1N(C=O)c2ccccc2[C@]12CC[C@](Nc1cccc(Br)c1)(C(=O)O)CC2` (some centres unmarked) [Example 26, (1r,4r)-4-(3-bromoanilino)-1′-formyl-2′-methyl-1′,2′-dihydrospiro[cyclohexane-1,3′-indole]-4-carboxylic acid] belongs 42.8 µM; to `CC1=Nc2ccc(Br)cc2[C@]12CC[C@](Nc1cccc(Br)c1)(C(=O)O)CC2` [Example 27, (1r,4r)-5′-bromo-4-(3-bromoanilino)-2′-methylspiro[cyclohexane-1,3′-indole]-4-carboxylic acid], 36.3 µM.
As for `COc1cccc(N2C(=O)c3ccccc3[C@]23CC[C@@](Nc2cccc(Br)c2)(C(=O)O)CC3)c1` [Example 30, (1s,4s)-4-(3-bromoanilino)-2′-(3-methoxyphenyl)-3′-oxo-2′,3′-dihydrospiro[cyclohexane-1,1′-isoindole]-4-carboxylic acid], the Ki was 9.25 µM.
To `COc1cccc(N2Cc3ccccc3[C@]23CC[C@](Nc2cccc(Br)c2)(C(=O)O)CC3)c1` [Example 31, (1r,4r)-4-(3-bromoanilino)-2′-(3-methoxyphenyl)-2′,3′-dihydrospiro[cyclohexane-1,1′-isoindole]-4-carboxylic acid] belongs 36.3 µM.
Under `COc1cccc(N2Cc3ccccc3[C@]23CC[C@@](Nc2cccc(Br)c2)(C(=O)O)CC3)c1` [Example 32, (1s,4s)-4-(3-bromoanilino)-2′-(3-methoxyphenyl)-2′,3′-dihydrospiro[cyclohexane-1,1′-isoindole]-4-carboxylic acid] stands 3.21 µM; under `COc1ccc(N2C(=O)c3ccccc3[C@]23CC[C@@](Nc2cccc(Br)c2)(C(=O)O)CC3)cc1` [Example 33, (1s,4s)-4-(3-bromoanilino)-2′-(4-methoxyphenyl)-3′-oxo-2′,3′-dihydrospiro[cyclohexane-1,1′-isoindole]-4-carboxylic acid], 12.1 µM; under `Cc1cnccc1OCCCN1Cc2ccccc2[C@]12CC[C@@](Nc1cccc(Cl)c1)(C(=O)O)CC2` [Example 37, (1s,4s)-4-(3-chloroanilino)-2′-{3-[(3-methylpyridin-4-yl)oxy]propyl}-2′,3′-dihydrospiro[cyclohexane-1,1′-isoindole]-4-carboxylic acid], 0.295 µM.
On to `COc1ccc2c(c1)[C@]1(CC2)CC[C@@](Nc2cccc(Br)c2)(C(=O)O)CC1` [Example 62, (1s,4r)-4-(3-bromoanilino)-6′-methoxy-2′,3′-dihydrospiro[cyclohexane-1,1′-indene]-4-carboxylic acid], for which the Ki turned out to be 43.5 µM.
As for `O=C(O)[C@]1(Nc2cccc(Br)c2)CC[C@@]2(CCc3ccc(O)cc32)CC1` [Example 63, (1r,4s)-4-(3-bromoanilino)-6′-hydroxy-2′,3′-dihydrospiro[cyclohexane-1,1′-indene]-4-carboxylic acid], the inhibition constant Ki is 0.24 µM.
